Assay results taken from patent US20060160897A1, “Topical Use of Valproic Acid for the Prevention or Treatment of Skin Disorders” (priority 2003, published 2006).

System: inflammatory cytokines
Assay: Semiquantitative RT-PCR of cytokine mRNA, LPS stimulated keratinocytes
Assay type: cell-based, human
Conditions: HaCaT, 200 nM TSA or 5 mM VPA 4 hours, then LPS 100 ng/ml 24 hours, FIG. 12A
Description: Human immortalized keratinocytes (HaCaT cells) were seeded at a density of 2.5 million cells per ml into 75 cm^2 flasks. […] After 24 hours at 37° C. cells were lysed and total RNA was isolated using the RNeasy mini kit from Qiagen.
One microgram of total RNA was transcribed to cDNA by standard methods using reverse transcriptase and an oligo-dT primer (Invitrogen). For semiquantitative PCR, 2 μl of cDNA was amplified by PCR using specific primers. Primers for PCR were synthesized by MWG and are as follows: […]

[1] = vs untreated stimulated control

## CCCC(CCC)C(=O)O [VPA, 2-propyl-pentanoic acid]
  IFN-γ mRNA transcript: significantly reduced
[1]
  IL-6 mRNA level: significant decrease
  TNF-α mRNA level: significant decrease
